Source: patent US11634447B2 (priority 2012, dated 2023)

The molecules below were run on bacterial strain LF82 binding to the glycoprotein BSA-(Mannose)3 (assay: Bacterial Binding Assay (BBA)). Conditions: read-out: Bacterial Binding Assay IC50, LF82/Luciferase strain binding to BSA-(Man)3 coated plates, luminescence.
Format: cell-based, Escherichia coli
Procedure, shortened: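 Inhibition of LF82/luciferase E. coli adhesion is read as luminescence after washing off unbound cells. Compound and bacteria (10^7 per well) are co-incubated 40-75 min at room temperature on wells coated with 0.5-2 μg/mL BSA-(Man)3, with BSA-only wells as background; IC50 values derived.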

Compound | IC50
CCOC(=O)Cn1c2cc(C#C[C@H]3O[C@H](CO)[C@@H](O)[C@H](O)[C@@H]3O)ccc2c2ccc(C#C[C@H]3O[C@H](CO)[C@@H](O)[C@H](O)[C@@H]3O)cc21 [Compound 175, ethyl 2-[2,7-bis[2-[(2R,3S,4R,5S,6R)-3,4,5-trihydroxy-6-(hydroxymethyl)tetrahydropyran-2-yl]ethynyl]carbazol-9-yl]acetate] | 6.5 nM
O=C(O)Cn1c2cc(C#C[C@H]3O[C@H](CO)[C@@H](O)[C@H](O)[C@@H]3O)ccc2c2ccc(C#C[C@H]3O[C@H](CO)[C@@H](O)[C@H](O)[C@@H]3O)cc21 [Compound 176, 2-[2,7-Bis[2-[(2R,3S,4R,5S,6R)-3,4,5-trihydroxy-6-(hydroxymethyl)tetrahydropyran-2-yl]ethynyl]carbazol-9-yl]acetic acid] | 10 nM
CN1CCN(CCNC(=O)Cn2c3cc(C#C[C@H]4O[C@H](CO)[C@@H](O)[C@H](O)[C@@H]4O)ccc3c3ccc(C#C[C@H]4O[C@H](CO)[C@@H](O)[C@H](O)[C@@H]4O)cc32)CC1 [Compound 177, 2-[2,7-bis[2-[(2R,3S,4R,5S,6R)-3,4,5-trihydroxy-6-(hydroxymethyl)tetrahydropyran-2-yl]ethynyl]carbazol-9-yl]-N-[2-(4-methylpiperazin-1-yl)ethyl]acetamide] | 0.66 nM
O=C(Cn1c2cc(C#C[C@H]3O[C@H](CO)[C@@H](O)[C@H](O)[C@@H]3O)ccc2c2ccc(C#C[C@H]3O[C@H](CO)[C@@H](O)[C@H](O)[C@@H]3O)cc21)NCCN1CCOCC1 [Compound 178, 2-[2,7-bis[2-[(2R,3S,4R,5S,6R)-3,4,5-trihydroxy-6-(hydroxymethyl)tetrahydropyran-2-yl]ethynyl]carbazol-9-yl]-N-(2-morpholinoethyl)acetamide] | 3.1 nM
CN1CCN(C(=O)Cn2c3cc(C#C[C@H]4O[C@H](CO)[C@@H](O)[C@H](O)[C@@H]4O)ccc3c3ccc(C#C[C@H]4O[C@H](CO)[C@@H](O)[C@H](O)[C@@H]4O)cc32)CC1 [Compound 179, 2-[2,7-bis[2-[(2R,3S,4R,5S,6R)-3,4,5-trihydroxy-6-(hydroxymethyl)tetrahydropyran-2-yl]ethynyl]carbazol-9-yl]-1-(4-methylpiperazin-1-yl)ethanone] | 7.1 nM
O=C(Cn1c2cc(C#C[C@H]3O[C@H](CO)[C@@H](O)[C@H](O)[C@@H]3O)ccc2c2ccc(C#C[C@H]3O[C@H](CO)[C@@H](O)[C@H](O)[C@@H]3O)cc21)N1CCOCC1 [Compound 180, 2-[2,7-bis[2-[(2R,3S,4R,5S,6R)-3,4,5-trihydroxy-6-(hydroxymethyl)tetrahydropyran-2-yl]ethynyl]carbazol-9-yl]-1-morpholino-ethanone] | 5.5 nM
CN(C)C(=O)Cn1c2cc(C#C[C@H]3O[C@H](CO)[C@@H](O)[C@H](O)[C@@H]3O)ccc2c2ccc(C#C[C@H]3O[C@H](CO)[C@@H](O)[C@H](O)[C@@H]3O)cc21 [Compound 181, 2-[2,7-bis[2-[(2R,3S,4R,5S,6R)-3,4,5-trihydroxy-6-(hydroxymethyl)tetrahydropyran-2-yl]ethynyl]carbazol-9-yl]-N,N-dimethyl-acetamide] | 10 nM
OCCn1c2cc(C#C[C@H]3O[C@H](CO)[C@@H](O)[C@H](O)[C@@H]3O)ccc2c2ccc(C#C[C@H]3O[C@H](CO)[C@@H](O)[C@H](O)[C@@H]3O)cc21 [Compound 182, (2R,3 S,4R,5S,6R)-2-[2-[9-(2-Hydroxyethyl)-7-[2-[(2R,3 S,4R,5S,6R)-3,4,5-trihydroxy-6-(hydroxymethyl)tetrahydropyran-2-yl]ethynyl]carbazol-2-yl]ethynyl]-6-(hydroxymethyl)tetrahydropyran-3,4,5-triol] | 1.4 nM
[2H]C([2H])([2H])OCCn1c2cc(C#C[C@H]3O[C@H](CO)[C@@H](O)[C@H](O)[C@@H]3O)ccc2c2ccc(C#C[C@H]3O[C@H](CO)[C@@H](O)[C@H](O)[C@@H]3O)cc21 [Compound 183, (2R,3S,4R,5S,6R)-2-(Hydroxymethyl)-6-[2-[9-[2-(trideuteriomethoxy)ethyl]-7-[2-[(2R,3S,4R,5S,6R)-3,4,5-trihydroxy-6-(hydroxymethyl)tetrahydropyran-2-yl]ethynyl]carbazol-2-yl]ethynyl]tetrahydropyran-3,4,5-triol] | 0.76 nM
OC[C@H]1O[C@H](C#Cc2ccc3c4ccc(C#C[C@H]5O[C@H](CO)[C@@H](O)[C@H](O)[C@@H]5O)cc4n(C4CCOCC4)c3c2)[C@@H](O)[C@@H](O)[C@@H]1O [Compound 184, (2R,3S,4R,5S,6R)-2-(hydroxymethyl)-6-[2-[9-tetrahydropyran-4-yl-7-[2-[(2R,3S,4R,5S,6R)-3,4,5-trihydroxy-6-(hydroxymethyl)tetrahydropyran-2-yl]ethynyl]carbazol-2-yl]ethynyl]tetrahydropyran-3,4,5-triol] | 0.83 nM
CC(C)(C)OC(=O)N1CCC(n2c3cc(C#C[C@H]4O[C@H](CO)[C@@H](O)[C@H](O)[C@@H]4O)ccc3c3ccc(C#C[C@H]4O[C@H](CO)[C@@H](O)[C@H](O)[C@@H]4O)cc32)CC1 [Compound 185, tert-butyl 4-[2,7-bis[2-[(2R,3S,4R,5S,6R)-3,4,5-trihydroxy-6-(hydroxymethyl)tetrahydropyran-2-yl]ethynyl]carbazol-9-yl]piperidine-1-carboxylate] | 1.1 nM
CC1(Cn2c3cc(C#C[C@H]4O[C@H](CO)[C@@H](O)[C@H](O)[C@@H]4O)ccc3c3ccc(C#C[C@H]4O[C@H](CO)[C@@H](O)[C@H](O)[C@@H]4O)cc32)COC1 [Compound 186] | 0.28 nM
CN1CCC(n2c3cc(C#C[C@H]4O[C@H](CO)[C@@H](O)[C@H](O)[C@@H]4O)ccc3c3ccc(C#C[C@H]4O[C@H](CO)[C@@H](O)[C@H](O)[C@@H]4O)cc32)CC1 [Compound 187, (2R,3S,4R,5S,6R)-2-(hydroxymethyl)-6-[2-[9-(1-methyl-4-piperidyl)-7-[2-[(2R,3S,4R,5S,6R)-3,4,5-trihydroxy-6-(hydroxymethyl)tetrahydropyran-2-yl]ethynyl]carbazol-2-yl]ethynyl]tetrahydropyran-3,4,5-triol] | 1 nM
CN1CCC(Cn2c3cc(C#C[C@H]4O[C@H](CO)[C@@H](O)[C@H](O)[C@@H]4O)ccc3c3ccc(C#C[C@H]4O[C@H](CO)[C@@H](O)[C@H](O)[C@@H]4O)cc32)CC1 [Compound 188, (2R,3S,4R,5S,6R)-2-(hydroxymethyl)-6-[2-[9-[(1-methyl-4-piperidyl)methyl]-7-[2-[(2R,3S,4R,5S,6R)-3,4,5-trihydroxy-6-(hydroxymethyl)tetrahydropyran-2-yl]ethynyl]carbazol-2-yl]ethynyl]tetrahydropyran-3,4,5-triol] | 4.3 nM
OC[C@H]1O[C@H](C#Cc2ccc3c4ccc(C#C[C@H]5O[C@H](CO)[C@@H](O)[C@H](O)[C@@H]5O)cc4n(CCN4CCOCC4)c3c2)[C@@H](O)[C@@H](O)[C@@H]1O [Compound 189, (2R,3S,4R,5S,6R)-2-(hydroxymethyl)-6-[2-[9-(2-morpholinoethyl)-7-[2-[(2R,3S,4R,5S,6R)-3,4,5-trihydroxy-6-(hydroxymethyl)tetrahydropyran-2-yl]ethynyl]carbazol-2-yl]ethynyl]tetrahydropyran-3,4,5-triol] | 7.8 nM
O=C1CCCN1CCn1c2cc(C#C[C@H]3O[C@H](CO)[C@@H](O)[C@H](O)[C@@H]3O)ccc2c2ccc(C#C[C@H]3O[C@H](CO)[C@@H](O)[C@H](O)[C@@H]3O)cc21 [Compound 190, 1-[2-[2,7-bis[2-[(2R,3S,4R,5S,6R)-3,4,5-trihydroxy-6-(hydroxymethyl)tetrahydropyran-2-yl]ethynyl]carbazol-9-yl]ethyl]pyrrolidin-2-one] | 1.1 nM
OC[C@H]1O[C@H](C#Cc2ccc3c(c2)C2(SCCCS2)c2cc(C#C[C@H]4O[C@H](CO)[C@@H](O)[C@H](O)[C@@H]4O)ccc2-3)[C@@H](O)[C@@H](O)[C@@H]1O [Compound 191] | 0.36 nM
OC[C@H]1O[C@H](C#Cc2ccc3c(c2)C2(CCNCC2)c2cc(C#C[C@H]4O[C@H](CO)[C@@H](O)[C@H](O)[C@@H]4O)ccc2-3)[C@@H](O)[C@@H](O)[C@@H]1O [Compound 192, (2R,3S,4R,5S,6R)-2-(Hydroxymethyl)-6-[2-[7-[2-[(2R,3S,4R,5S,6R)-3,4,5-trihydroxy-6-(hydroxymethyl)tetrahydropyran-2-yl]ethynyl]spiro[fluorene-9,4piperidine]-2-yl]ethynyl]tetrahydropyran-3,4,5-triol] | 3.2 nM
OCCC1(CCO)c2cc(C#C[C@H]3O[C@H](CO)[C@@H](O)[C@H](O)[C@@H]3O)ccc2-c2ccc(C#C[C@H]3O[C@H](CO)[C@@H](O)[C@H](O)[C@@H]3O)cc21 [Compound 193, (2R,3S,4R,5S,6R)-2-[2-[9,9-Bis(2-hydroxyethyl)-7-[2-[(2R,3S,4R,5S,6R)-3,4,5-trihydroxy-6-(hydroxymethyl)tetrahydropyran-2-yl]ethynyl]fluoren-2-yl]ethynyl]-6-(hydroxymethyl)tetrahydropyran-3,4,5-triol] | 0.27 nM
OC[C@H]1O[C@H](C#Cc2ccc3c(c2)C2(C[C@@H](O)[C@@H](O)C2)c2cc(C#C[C@H]4O[C@H](CO)[C@@H](O)[C@H](O)[C@@H]4O)ccc2-3)[C@@H](O)[C@@H](O)[C@@H]1O (stereo partly drawn) [Compound 194, (2R,3 S,4R,5S,6R)-2-[2-[(3R,4S)-3,4-Dihydroxy-7[2-[(2R,3 S,4R,5S,6R)-3,4,5-trihydroxy-6-(hydroxymethyl)tetrahydropyran-2-yl]ethynyl]spiro[cyclopentane-1,9fluorene]-2yl]ethynyl]-6-(hydroxymethyl)tetrahydropyran-3,4,5-triol] | 0.27 nM
OC[C@H]1O[C@H](C#Cc2ccc3c(c2)C(O)c2cc(C#C[C@H]4O[C@H](CO)[C@@H](O)[C@H](O)[C@@H]4O)ccc2-3)[C@@H](O)[C@@H](O)[C@@H]1O (stereo partly drawn) [Compound 195, (2R,3S,4R,5S,6R)-2-(hydroxymethyl)-6-[2-[9-hydroxy-7-[2-[(2R,3S,4R,5S,6R)-3,4,5-trihydroxy-6-(hydroxymethyl)tetrahydropyran-2-yl]ethynyl]-9H-fluoren-2-yl]ethynyl]tetrahydropyran-3,4,5-triol] | 18 nM
